Consider five molecules from paper PMC10813298, “Evidence of Guanidines Potential against Leishmania (Viannia) braziliensis: Exploring In Vitro Effectiveness, Toxicities and of Innate Immunity Response Effects” (Biomolecules, 2023).

Series [1] has as its system L. (V.) braziliensis promastigotes. In words: Antileishmanial activity on promastigotes (MTT, 72 h). In kind it is cell-based, Leishmania (Viannia) braziliensis. Here is the method: Leishmania (Viannia) braziliensis (MHOM/BR/1975/M2903) was utilized in this study. The promastigote forms of these parasites were maintained in vitro in Schneider’s insect medium pH 7.2, supplemented with 20% fetal bovine serum (FBS) and 1% antibiotic solution (100 U/mL penicillin and 100 μg/mL streptomycin) at a temperature of 26 ± 1 °C in a Biochemical Oxygen Demand (BOD) incubator (Eletrolab EL202, São Paulo, Brazil), with regular aeration and weekly subculturing.
Assessment of antileishmanial activity against promastigote and amastigote axenic forms of parasites followed the method described by Rodrigues et al. and involved the following steps: L. (V.) braziliensis parasites were cultured in 96-well plates at a concentration of 1 × 10^6 parasites per well. Each well contained 100 μL of supplemented Schneider medium. Serial concentrations of the test substances, ranging from 50 to 1.56 μmol/L, were prepared. Reference drugs, meglumine antimoniate (20 to 40,000 μmol/L) and amphotericin B (0.031 to 2 μmol/L) were also prepared. These concentrations were used to assess the effects of the test substances in comparison to reference drugs. The plates were incubated in a BOD incubator at 26 °C for 72 h. After the 72 h incubation period, 10 μL of MTT (5 mg/mL) was added to each well. The plates were then incubated for an additional 4 h. At the end of the 4 h incubation, formazan crystals formed by the reduction of the MTT salt were solubilized by adding 50 μL of a 10% (w/v) sodium dodecyl sulfate (SDS) solution in distilled water. Absorbance was measured using a microplate reader at a wavelength of 540 nm (Biosystems ELx800 model, Curitiba, PR, Brazil). This measurement quantified the metabolic activity of the parasites, which is indicative of their viability and proliferation. Schneider medium containing 0.2% DMSO was used as a negative control in the tests.
The different mean concentrations for promastigotes (IC50) and macrophages (CC50) were calculated using nonlinear regression. For comparisons between groups, ANOVA analysis of variance was performed followed by Tukey’s test in a statistical program, taking the p-value < 0.05 as the maximum level of statistical significance.

Series [2] concerns L. (L.) amazonensis promastigotes. Details: method as in PMID 30913526. The note with it: read-out: IC50 antipromastigote activity; cited from earlier work.
The next series has as its system IL-10. Kind of series: Cytokine production in supernatant of infected macrophages (ELISA), IL-10. In kind it is cell-based, murine. The note with it: supernatant of RAW 264.7 macrophages infected with L. (V.) braziliensis. The source says:
To assess the production of cytokines TNF-α and IL-12 (associated with Th1 response), as well as IL-10 and IL-6 (associated with Th2 response), in the supernatants of the macrophage infection assay, the sandwich enzyme-linked immunosorbent assay (ELISA) method was employed, following the manufacturer’s instructions (eBioscience^TM, San Diego, CA, USA). Initially, capture antibodies specific to TNF-α, IL-6, IL-10, and IL-12 were sensitized in ELISA plates (NUNC-ImmunoTM, Sigma-Aldrich, St. Louis, MO, USA). The plates were incubated at 4 °C for 18 h. After the incubation period, all wells were washed with a solution containing 0.05% PBS and Tween 20 (Sigma-Aldrich, St. Louis, MO, USA). A blocking solution containing 10% FBS in PBS was added to the wells and incubated for 1 h. Subsequently, the wells were washed again. The supernatant obtained from the macrophage infection assay was added to the respective wells. Known concentrations of recombinant cytokines (TNF-α, IL-10, IL-6, and IL-12) were also added to the plate in parallel, covering a range from high to low concentrations. The plates were maintained at 4 °C for another 18 h. […] The absorbance was measured in a plate reader at a wavelength of 450 nm. The concentration of cytokines (TNF-α, IL-10, IL-6, and IL-12) in the supernatants was determined by interpolation from the standard curve.
For orientation: An ELISA detects its analyte on a solid surface through an enzyme-linked reagent.

Another series concerns right atrium. Kind of series: Chronotropic effect on isolated right atrium. Details: species or system guinea pig. The note with it: for effect on heart rate (chronotropic): isolated guinea pig heart muscle preparation, up to 100 µmol/L. Here is the method:
Guinea pigs of either sex weighing between 250 or 380 g were utilized in this study. The animals were housed in a controlled environment in an air-conditioned room, maintaining a temperature of 22 to 24 °C and a relative humidity of 50% to 60%. A 12 h light–dark cycle was maintained.
On the day of the experiments, the animals were euthanized via cervical dislocation. The heart, aorta, pulmonary artery, and ileum were surgically removed and immersed in Krebs–Henseleit solution, with the following composition: NaCl 144.9 mM, KCl 4.73 mM, CaCl2 3.2 mM, MgSO4 1.18 mM, NaHCO3 24.9 mM, KH2PO4 1.18 mM, and glucose 10 mM, with the pH maintained at 7.2–7.4. This solution was continuously aerated with a mixture of 95% O2 and 5% CO2.
Papillary muscles were isolated from the right ventricle of the heart and meticulously cleared of Purkinje fibers to prevent spontaneous activity. To ensure adequate oxygen supply, only muscles with a diameter less than 0.87 mm were used. The right atrium was also dissected for assessment of chronotropic activity. Both the aorta and pulmonary artery were cleaned and cut into 5 mm rings, while the ileum was sectioned into pieces measuring 1 to 2 cm.
One end of the dissected tissues was securely tied with silver wire for attachment to a tissue holder, while the other end was connected to a force transducer (Transbridge™, 4-Channel Transducer Amplifier, World Precision Instruments, Sarasota, FL, USA). For contractile measurements, the terminal ileum was stimulated with 60 mM KCl, and the pulmonary artery and aorta rings were exposed to a 90 mM KCl solution. Papillary muscles were electrically stimulated using an Anapulse Stimulator Model 301-T and an Isolation Unit Model 305-1 (WPI, Hamden, CT, USA) with rectangular pulses of 3 ms duration at a frequency of 1 Hz. The amplitude of the stimulation pulse was maintained at 10% above the threshold level. To optimize contractility, a constant resting tension was applied throughout the experiment: 3.9 mN for papillary muscle, 4.9 mN for terminal ileum, 10.4 mN for the right atrium, and 19.6 mN for aorta and pulmonary artery rings.
Following a 30 min control period, different concentrations of test compounds were cumulatively added to the bath solution every 45 min until a stable effect was achieved. The responses were recorded using a chart recorder (BD 112 Dual Channel, Kipp &Zonen, PO Box 507, 2624 BC, Delft, Holland) for subsequent evaluation. Stock concentrations of the test compounds were prepared using DMSO. To account for any potential DMSO effect, control experiments were conducted with the solvent alone, and the observed effects were subtracted from the responses elicited by the test compounds.

Series [3] deals with L. (L.) infantum promastigotes. Details: method as in PMID 36977142. The note with it: read-out: IC50 antipromastigote activity; cited from earlier work.

Read-outs that look alike come from different tables or passages of the source.

By IC50 is commonly meant the concentration needed to halve the response being measured. For `O=C(/N=C(/NCc1ccccc1)Nc1ccc([N+](=O)[O-])cc1)c1ccccc1` [LQOF-G1, (Z)-N-benzoyl-N-benzyl-N-(4-nitrophenyl)guanidine], the IC50 in series [1] was 4.6 ± 0.5 µM; in series [1] (Leishmania braziliensis) it was 4.62 µM; in series [2] it was 11.5 µM. In the series on IL-10, the IL-10 level entry is on record as “decreased”. The “effect on heart rate (chronotropic)” value in the series with right atrium is “slight decrease in heart rate”.
The term EC50 denotes the concentration at which the effect is half-maximal. For `O=C(/N=C(/NCc1ccccc1)Nc1ccc(Br)cc1)c1ccccc1` [LQOF-G2, (Z)-N-benzoyl-N-benzyl-N-(4-bromophenyl)guanidine], the IC50 in series [1] (Leishmania braziliensis) is 5.4 ± 0.8 µM; in series [2], 19.6 µM; in series [3], 12.7 µM. The IL-10 level result in the series on IL-10 is reported as “decreased”. The EC50 in the series with right atrium (Cavia porcellus, isolated guinea pig right atrium, 3 to 100 µmol/L, read-out: EC50 reduction of heart rate activity) stood at 69 µM.
Regarding `CC(C)(C)c1ccc(N/C(=N\C(=O)c2ccccc2)NCc2ccccc2)cc1` [LQOF-G6, (Z)-N-benzoyl-N-benzyl-N-(4-tert-butylphenyl)guanidine], the results for the concentration for half-maximal inhibition (IC50) in series [1] (Leishmania braziliensis), in series [2] and in series [3] were 5.9 ± 0.9 µM, 25.9 µM and 24.4 µM, respectively.
Consider `O=C(/N=C(/NCc1ccccc1)Nc1ccc(I)cc1)c1ccccc1` [LQOF-G7, (Z)-N-benzoyl-N-benzyl-N-(4-iodophenyl)guanidine], for which the IC50 in series [1] (Leishmania braziliensis) was 7.2 ± 0.6 µM; in series [2] it was 15.9 µM; in series [3], 23.6 µM. Moreover, in the series with right atrium, the “effect on heart rate (chronotropic)” value was “slight decrease in heart rate”.
`O=C(/N=C(/NCc1ccc(Cl)cc1Cl)Nc1ccc(Br)cc1)c1ccccc1` [LQOF-G32, (Z)-N-benzoyl-N-(2,4-di-chlorobenzyl)-N-(4-bromophenyl)guanidine] registered an IC50 in series [1] (Leishmania braziliensis) of 17.2 ± 1 µM. Further, the “effect on heart rate (chronotropic)” value with right atrium is given as “slight decrease in heart rate”.
